ChEMBL document CHEMBL5096200, “A short survey of dengue protease inhibitor development in the past 6 years (2015-2020) with an emphasis on similarities between DENV and SARS-CoV-2 proteases” (Bioorg Med Chem, 2021)
≈ marks a conversion by molar mass, not a printed value.

Columns and labels:
[1] = Permeability of the compound at pH 7.4; format: ADME; conditions: PAMPA, read-out: permeability
[2] = Antiviral activity against DENV2 infected in human K562 cells assessed as log reduction of viral titre measured at 1 uM measured after 72 hrs; format: functional, dengue virus type 2
[3] = tested on: dengue virus type 2; assay: Antiviral activity against DENV2; format: functional, organism-based
[4] = Antiviral activity against DENV2 infected in human Huh-7 cells assessed as log reduction of viral titre measured at 1 uM measured after 72 hrs; format: functional, dengue virus type 2
[5] = tested on: dengue virus type 2; assay: Antiviral activity against DENV2 assessed as inhibition of viral replication; format: functional, organism-based
[6] = tested on: dengue virus type 1; assay: Antiviral activity against DENV1 infected in human Huh-7 cells assessed as inhibition of viral replication measured after 72 hrs post infection by qRT-PCR analysis; format: functional, organism-based; conditions: Huh-7, 72 h
[7] = tested on: dengue virus type 3; assay: Antiviral activity against DENV3 infected in human Huh-7 cells assessed as inhibition of viral replication measured after 72 hrs post infection by qRT-PCR analysis; format: functional, organism-based; conditions: Huh-7, 72 h
[8] = tested on: dengue virus type 2; assay: Antiviral activity against DENV2 infected in human Huh-7 cells assessed as inhibition of viral replication measured after 72 hrs post infection by qRT-PCR analysis; format: functional, organism-based; conditions: Huh-7, 72 h
[9] = tested on: dengue virus type 4; assay: Antiviral activity against DENV4 infected in human Huh-7 cells assessed as inhibition of viral replication measured after 72 hrs post infection by qRT-PCR analysis; format: functional, organism-based; conditions: Huh-7, 72 h
[10] = Inhibition of DENV2 protease infected in human HeLa cells; format: cell-based, dengue virus type 2; conditions: Dengue virus
[11] = Antiviral activity against DENV2 infected in BHK-21 cells assessed as inhibition of viral replication; format: functional, cell-based, dengue virus type 2; conditions: Dengue virus
[12] = Cytotoxicty against BHK-21 cells assessed as reduction in cell viability; format: toxicity, cell-based; conditions: Mesocricetus auratus (golden hamster)
[13] = molecular target: T1, Genome polyprotein (dengue virus type 2, UniProt P29990); assay: Inhibition of DENV NS2B/NS3 pro
T1 sequence (P29990 1346-1475 limits assumed): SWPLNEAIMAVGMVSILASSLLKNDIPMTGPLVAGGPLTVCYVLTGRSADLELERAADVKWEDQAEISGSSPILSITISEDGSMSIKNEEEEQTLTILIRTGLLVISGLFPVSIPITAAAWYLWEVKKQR
T1 sequence (P29990 1476-2093 limits assumed): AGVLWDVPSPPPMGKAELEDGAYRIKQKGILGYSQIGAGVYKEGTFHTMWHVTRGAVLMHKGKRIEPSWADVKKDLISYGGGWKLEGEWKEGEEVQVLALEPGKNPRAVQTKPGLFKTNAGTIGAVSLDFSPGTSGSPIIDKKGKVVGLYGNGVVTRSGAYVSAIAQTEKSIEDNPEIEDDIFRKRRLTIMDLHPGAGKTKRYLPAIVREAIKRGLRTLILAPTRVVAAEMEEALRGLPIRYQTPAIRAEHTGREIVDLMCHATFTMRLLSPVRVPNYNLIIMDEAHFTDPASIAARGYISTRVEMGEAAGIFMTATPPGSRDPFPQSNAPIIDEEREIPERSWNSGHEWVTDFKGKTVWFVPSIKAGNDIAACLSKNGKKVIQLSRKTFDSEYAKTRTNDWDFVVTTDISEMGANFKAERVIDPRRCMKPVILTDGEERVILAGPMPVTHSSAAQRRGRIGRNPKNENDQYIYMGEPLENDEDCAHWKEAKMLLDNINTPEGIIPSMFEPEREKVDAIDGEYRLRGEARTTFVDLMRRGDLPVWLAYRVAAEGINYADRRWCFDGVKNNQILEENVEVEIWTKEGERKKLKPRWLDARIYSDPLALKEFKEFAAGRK

[14] = tested on: Dengue virus; assay: Antiviral activity against Dengue virus assessed as reduction in viral titer at 50 uM preincubated for 1 hr measured after 24 hrs post infection by plaque assay relative to control; format: functional; set-up: scale not given: the % may be the effect or the level left; conditions: time 25 hrs
[15] = tested on: dengue virus type 1; assay: Antiviral activity against Dengue virus 1 infected in african green monkey Vero cells assessed as reduction in viral titer preincubated for 1 hour with cells followed by viral infection and measured upto 7 days by plague assay relative to control; format: functional; conditions: time <= 7 day
[16] = Antiviral activity against Dengue virus 3 infected in african green monkey Vero cells assessed as reduction in viral titer preincubated for 1 hour with cells followed by viral infection and measured upto 7 days by plague assay relative to control; format: functional, dengue virus type 3; conditions: time <= 7 day
[17] = Antiviral activity against Dengue virus 4 infected in african green monkey Vero cells assessed as reduction in viral titer preincubated for 1 hour with cells followed by viral infection and measured upto 7 days by plague assay relative to control; format: functional, dengue virus type 4; conditions: time <= 7 day
[18] = Antiviral activity against Dengue virus 2 infected in african green monkey Vero cells assessed as reduction in viral titer preincubated for 1 hour with cells followed by viral infection and measured upto 7 days by plague assay relative to control; format: functional, dengue virus type 2; conditions: time <= 7 day
[19] = molecular target: T1, Genome polyprotein; assay: Inhibition of DENV-2 NS2bNS3 pro
[20] = molecular target: T1, Genome polyprotein; assay: Inhibition of DENV-2 NS2B/NS3 protease expressed in Escherichia coli XL1 using Boc-GRR-MCA as substrate preincubated for 10 mins followed by substrate addition and measured after 60 mins
[21] = Antiviral activity against DENV2 infected in human HepG2 cells measured after 48 hrs by plaque assay; format: functional, cell-based, dengue virus type 2; conditions: Dengue virus, HepG2, 48 h
[22] = molecular target: T1, Genome polyprotein; assay: Inhibition of DENV2 NS2B-NS3 protease using Boc-Gly-Arg-Arg-MCA as substrate by fluorescence assay
[23] = Antiviral activity against DENV2 infected in african green monkey Vero cells assessed as reduction of viral titre by viral plaque reduction assay; format: functional, cell-based, dengue virus type 2; conditions: Dengue virus
[24] = Antiviral activity against DENV-2 NGC infected in african green monkey Vero B cells assessed as reduction in virus induced cytopathic effect; format: functional, cell-based, dengue virus type 2; conditions: Dengue virus
[25] = tested on: dengue virus type 2; assay: Antiviral activity against DENV2 infected in human Huh-7 cells using Boc-GRR-AMC as substrate incubated for 30 mins by fluorescence spectroscopy assay; format: functional, organism-based; conditions: Huh-7, 0.5 h
[26] = Inhibition of DENV2 pro infected in human Huh-7 cells using 7-amino-4-methylcoumarin (AMC) fluorophore-linked Boc-GRR-AMC as substrate incubated for 30 mins; format: cell-based, dengue virus type 2; conditions: Dengue virus, Huh-7, 0.5 h
[27] = molecular target: T1, Genome polyprotein; assay: Inhibition of DENV NS2B/NS3 protease transfected in human Huh-7 cells using 7-amino-4-methylcoumarin (AMC) fluorophore-linked peptide substrate Boc-GRR-AMC as substrate by fluoroscence based assay; format: cell-based
[28] = tested on: dengue virus type 2; assay: Antiviral activity against DENV-2 infected in human Huh-7 cells assessed as reduction in viral RNA treated for 3 days by qRT-PCR analysis; format: functional, organism-based; conditions: Huh-7, 72 h
[29] = tested on: dengue virus type 2; assay: Antiviral activity against DENV2 (TR1751) infected in BHK-21 cells assessed as reduction in virus titre at 1000 uM by focus forming assay relative to control; format: functional; set-up: scale not given: the % may be the effect or the level left
[30] = tested on: dengue virus type 2; assay: Antiviral activity against DENV2 (TR1751) infected in BHK-21 cells assessed as reduction in virus titre at 100 uM by focus forming assay relative to control; format: functional; set-up: scale not given: the % may be the effect or the level left

SMILES: O=C1c2c(O)ccc([N+](=O)[O-])c2C(=O)c2c([N+](=O)[O-])ccc(O)c21
- Papp [1]: 4.45 ×10⁻⁶ cm/s
- log(activity) [2]: >1 PFU/ml
- EC50 [3]: 4.2 µM
- log(activity) [4]: >1 PFU/ml

SMILES: CC(=O)O[C@H]1CC(C)(C)C(=C=C/C(C)=C/C=C/C=C/C=C(C)/C=C2C=C(/C=C/[C@@]34O[C@]3(C)C[C@@H](O)CC4(C)C)C(=O)O/2)[C@](C)(O)C1
- EC50 [5]: 4.5 µM
- EC50 [6]: 5.84 µM
- EC50 [7]: 5.84 µM
- EC50 [8]: 4.5 µM
- EC50 [9]: 5.84 µM

SMILES: CCCCCC(=O)N[C@H](C(=O)NCc1ccc(NC(=N)N)cc1)c1ccc(OCc2ccccc2)cc1
- EC50 [10]: 0.49 µM

SMILES: Cc1cc(O)c(S(=O)(=O)O)cc1Cc1cc(S(=O)(=O)O)c(O)c(Cc2cc(S(=O)(=O)O)c(O)cc2C)c1C
- IC50 [11]: 4.99 µg/mL (≈ 8.48 µM)
- IC50 [12]: 459 µg/mL (≈ 781 µM)
- IC50 [13]: 0.815 µM

SMILES: C[C@@H](CC[C@H](O)[C@](C)(O)CO)[C@@H]1CC[C@]2(C)C3=CC[C@@H]4C(C)(C)C(=O)CC[C@@]4(C)C3=CC[C@@]12C
- Activity [14]: 40%

SMILES: N#C/C(=C/c1ccc(-c2ccc(C(=O)O)cc2)s1)c1nc2cc(Cl)ccc2[nH]1
- inhibition (INH) [15]: 50%
- inhibition (INH) [16]: 75%
- inhibition (INH) [17]: 73%
- inhibition (INH) [18]: 83%
- IC50 [19]: 5.95 µM

SMILES: CCCCC(=O)Nc1nc(SC(=O)CCCC)c2nc[nH]c2n1
- IC50 [20]: 0.38 µM

SMILES: CCCCC1C(C(=O)OCC)C(c2ccccc2)CCN1C(=O)OC(C)(C)C (stereo unspecified)
- EC50 [21]: 3.2 µM
- IC50 [22]: 214 µM

SMILES: O=C(O)c1ccccc1-c1c2cc(I)c(=O)c(I)c-2oc2c(I)c(O)c(I)cc12
- EC50 [23]: 1.2 µM

SMILES: Cc1c(O)cccc1C(=O)N[C@@H](CSc1ccccc1)[C@H](O)CN1C[C@H]2CCCC[C@H]2C[C@H]1C(=O)NC(C)(C)C
- EC50 [24]: 3.5 µM

SMILES: COC(=O)c1[nH]c2ccc(Cl)cc2c1C(=O)c1cc(OC)c(OC)c(OC)c1
- EC50 [25]: 4.6 µM
- EC50 [5]: 4.6 µM
- EC50 [26]: 6.7 µM
- EC50 [27]: 4.7 µM
- EC50 [28]: 4.6 µM

SMILES: Oc1cc(O)c2c(c1)O[C@H](c1ccc(O)c(O)c1)[C@H](O)C2 [(-)-EPICATECHIN]
- Activity [29]: 66.2%
- Activity [30]: 77.7%
